Experimental data taken from ChEMBL document CHEMBL5505990, “Novel aroyl guanidine anti-trypanosomal compounds that exert opposing effects on parasite energy metabolism” (Eur J Med Chem, 2024).
One block for each compound: values may come before it. Active and inactive are the calls of the source. The calls are words filed in the database; no cut-off is given here.

Assays:
[1] = tested on: Trypanosoma brucei brucei; experiment: Anti-trypanosomal activity against Trypanosoma brucei brucei; assay type: functional, organism-based
[2] = Selectivity ratio of IC50 for HEK293 cells to IC50 for Trypanosoma brucei brucei; assay type: toxicity; conditions: human, read-out: Ratio IC50
[3] = Cytotoxicity against HEK293 cells; assay type: toxicity, cell-based; conditions: human
[4] = Cytotoxicity against HEK293 cells assessed as inhibition of cell viability at 83 uM relative to control; assay type: toxicity, cell-based; conditions: human, read-out: INH
[5] = tested on: Trypanosoma brucei brucei; experiment: Anti-trypanosomal activity against Trypanosoma brucei brucei at 10 uM relative to control; assay type: functional
[6] = tested on: Trypanosoma brucei brucei; experiment: Upregulation of glycolytic flux in bloodstream Trypanosoma brucei brucei 427 assessed as increase in pyruvate level at 1 uM incubated for 5 hrs; assay type: functional
[7] = tested on: Trypanosoma brucei brucei; experiment: Upregulation of carnitine to acetyl-carnitine ratio in bloodstream Trypanosoma brucei brucei 427 assessed as increase in pyruvate level at 1 uM incubated for 5 hrs; assay type: functional
[8] = tested on: Trypanosoma brucei brucei; experiment: Downregulation of NADPH level in bloodstream Trypanosoma brucei brucei 427 assessed as increase in pyruvate level at 1 uM incubated for 5 hrs; assay type: functional
[9] = tested on: Trypanosoma brucei brucei; experiment: Induction of glycolysis in bloodstream Trypanosoma brucei brucei 427 assessed as increase in glycerol level at 1 uM incubated for 5 hrs; assay type: functional
[10] = tested on: Trypanosoma brucei brucei; experiment: Effect on stearoyl-CoA level in bloodstream Trypanosoma brucei brucei 427 assessed as increase in pyruvate level at 1 uM incubated for 5 hrs; assay type: functional
[11] = tested on: Trypanosoma brucei brucei; experiment: Effect on acetyl-carnitine level in bloodstream Trypanosoma brucei brucei 427 assessed as increase in pyruvate level at 1 uM incubated for 5 hrs; assay type: functional
[12] = tested on: Trypanosoma brucei brucei; experiment: Disruption of nucleotide metabolism in bloodstream Trypanosoma brucei brucei 427 assessed as accumulation of purine/pyrimidine base forms at 1 uM incubated for 5 hrs; assay type: functional, organism-based
[13] = tested on: Trypanosoma brucei brucei; experiment: Effect on palmitoyl-CoA level in bloodstream Trypanosoma brucei brucei 427 assessed as increase in pyruvate level at 1 uM incubated for 5 hrs; assay type: functional
[14] = tested on: Trypanosoma brucei brucei; experiment: Downregulation of 6-phosphogluconate level in bloodstream Trypanosoma brucei brucei 427 assessed as increase in pyruvate level at 1 uM incubated for 5 hrs; assay type: functional
[15] = tested on: Trypanosoma brucei brucei; experiment: Disruption of nucleotide metabolism in bloodstream Trypanosoma brucei brucei 427 assessed as accumulation of NMP at 1 uM incubated for 5 hrs; assay type: functional, organism-based
[16] = tested on: Trypanosoma brucei brucei; experiment: Induction of glycolysis in bloodstream Trypanosoma brucei brucei 427 assessed as increase in succinate level at 1 uM incubated for 5 hrs; assay type: functional
[17] = tested on: Trypanosoma brucei brucei; experiment: Disruption of nucleotide metabolism in bloodstream Trypanosoma brucei brucei 427 assessed as accumulation of NDP at 1 uM incubated for 5 hrs; assay type: functional, organism-based
[18] = tested on: Trypanosoma brucei brucei; experiment: Effect on acetyl-CoA level in bloodstream Trypanosoma brucei brucei 427 assessed as increase in pyruvate level at 1 uM incubated for 5 hrs; assay type: functional
[19] = tested on: Trypanosoma brucei brucei; experiment: Induction of glycolysis in bloodstream Trypanosoma brucei brucei 427 assessed as increase in pyruvate level at 1 uM incubated for 5 hrs; assay type: functional
[20] = tested on: Trypanosoma brucei brucei; experiment: Disruption of nucleotide metabolism in bloodstream Trypanosoma brucei brucei 427 assessed as depletion of NTP at 1 uM incubated for 5 hrs; assay type: functional, organism-based
[21] = tested on: Trypanosoma brucei brucei; experiment: Effect on free CoA level in bloodstream Trypanosoma brucei brucei 427 assessed as increase in pyruvate level at 1 uM incubated for 5 hrs; assay type: functional
[22] = tested on: Trypanosoma brucei brucei; experiment: Disruption of nucleotide metabolism in bloodstream Trypanosoma brucei brucei 427 assessed as accumulation of nucleosides at 1 uM incubated for 5 hrs; assay type: functional, organism-based
[23] = tested on: Trypanosoma brucei brucei; experiment: Effect on free carnitine level in bloodstream Trypanosoma brucei brucei 427 assessed as increase in pyruvate level at 1 uM incubated for 5 hrs; assay type: functional
[24] = tested on: Trypanosoma brucei brucei; experiment: Disruption of nucleotide metabolism in bloodstream Trypanosoma brucei brucei 427 assessed as depletion of CTP at 1 uM incubated for 5 hrs; assay type: functional, organism-based
[25] = tested on: Trypanosoma brucei brucei; experiment: Disruption of nucleotide metabolism in bloodstream Trypanosoma brucei brucei 427 assessed as depletion of deoxy-CTP at 1 uM incubated for 5 hrs; assay type: functional, organism-based
[26] = tested on: Trypanosoma brucei brucei; experiment: Disruption of nucleotide metabolism in bloodstream Trypanosoma brucei brucei 427 assessed as depletion of ATP at 1 uM incubated for 5 hrs; assay type: functional, organism-based
[27] = tested on: Trypanosoma brucei brucei; experiment: Disruption of nucleotide metabolism in bloodstream Trypanosoma brucei brucei 427 assessed as depletion of GTP at 1 uM incubated for 5 hrs; assay type: functional, organism-based
[28] = tested on: Trypanosoma brucei brucei; experiment: Disruption of nucleotide metabolism in bloodstream Trypanosoma brucei brucei 427 assessed as depletion of UTP at 1 uM incubated for 5 hrs; assay type: functional, organism-based
[29] = tested on: Trypanosoma brucei brucei; experiment: Disruption of nucleotide metabolism in bloodstream Trypanosoma brucei brucei 427 assessed as depletion of deoxy-UTP at 1 uM incubated for 5 hrs; assay type: functional, organism-based
[30] = tested on: Trypanosoma brucei brucei; experiment: Disruption of nucleotide metabolism in bloodstream Trypanosoma brucei brucei 427 assessed as depletion of deoxy-ATP at 1 uM incubated for 5 hrs; assay type: functional, organism-based
[31] = tested on: Trypanosoma brucei brucei; experiment: Disruption of nucleotide metabolism in bloodstream Trypanosoma brucei brucei 427 assessed as depletion of deoxy-GTP at 1 uM incubated for 5 hrs; assay type: functional, organism-based

IC50 [1]: > 10 µM
SMILES: N#Cc1ccccc1/N=C(\NCCN1CCOCC1)NC(=O)c1ccccc1

IC50 [1]: 1.6 µM
SMILES: CCc1ccccc1/N=C(\NCCN1CCOCC1)NC(=O)c1cccc(F)c1
selectivity ratio [2]: > 52
IC50 [3]: > 83 µM

IC50 [1]: > 10 µM
SMILES: CCc1ccccc1/N=C(\NCCN(C)C)NC(=O)c1ccccc1

IC50 [1]: > 10 µM
SMILES: CCc1ccccc1/N=C(\NCCN1CCOCC1)NC(=O)c1ccccc1Cl

IC50 [1]: 10 µM
SMILES: CCc1ccccc1/N=C(\NCCN1CCOCC1)NC(=O)c1ccc(C(C)C)cc1
cytotoxicity at 83 µM [4]: 52%

IC50 [1]: 9 µM
SMILES: CCCc1ccc(C(=O)N/C(=N/c2ccccc2CC)NCCN2CCOCC2)cc1
selectivity ratio [2]: > 9
IC50 [3]: > 83 µM

IC50 [1]: > 10 µM
SMILES: CCc1ccccc1/N=C(\NCCN1CCOCC1)NC(=O)c1ccccc1C

IC50 [1]: > 10 µM
SMILES: CCc1ccccc1/N=C(\NCCN1CCN(C)CC1)NC(=O)c1ccccc1

IC50 [1]: > 10 µM
SMILES: CCc1ccccc1/N=C(\NCCN1CCOCC1)NC(=O)c1ccccc1OC

IC50 [1]: 8.7 µM
SMILES: CCc1ccccc1/N=C(\NCCN1CCOCC1)NC(=O)c1ccc(Br)cc1
selectivity ratio [2]: > 9.5
IC50 [3]: > 83 µM

IC50 [1]: > 10 µM
SMILES: CCc1ccccc1/N=C(\NCCN1CCOCC1)NC(=O)c1ccccc1Br

IC50 [1]: > 83 µM
SMILES: CCc1ccccc1/N=C(\NCCN1CCOCC1)NC(=O)c1cccc(O)c1
selectivity ratio [2]: 1
IC50 [3]: > 83 µM

IC50 [1]: 1.6 µM
SMILES: CCc1ccccc1/N=C(\NCCN1CCOCC1)NC(=O)c1cccc(OC)c1
selectivity ratio [2]: > 52
IC50 [3]: > 83 µM

SMILES: CC(C)c1ccccc1/N=C(\NCCN1CCOCC1)NC(=O)c1ccccc1
inhibition at 10 µM [5]: 75%
cytotoxicity at 83 µM [4]: 63%

IC50 [1]: > 10 µM
SMILES: CCc1ccccc1/N=C(\NCCN1CCCC1)NC(=O)c1ccccc1

IC50 [1]: 9.4 µM
SMILES: CCc1ccccc1/N=C(\NCCN1CCOCC1)NC(=O)c1ccc(OC)cc1
selectivity ratio [2]: > 8.8
IC50 [3]: > 83 µM

SMILES: Cc1ccccc1/N=C(\NCCN1CCOCC1)NC(=O)c1ccccc1
inhibition at 10 µM [5]: 75%
Activity [6]: inactive
Activity [7]: inactive
Activity [8]: inactive
Activity [9]: inactive
Activity [10]: inactive
Activity [11]: inactive
Activity [12]: inactive
Activity [13]: inactive
Activity [14]: inactive
Activity [15]: inactive
Activity [16]: inactive
Activity [17]: inactive
IC50 [3]: > 83 µM
Activity [18]: Active
Activity [19]: inactive
Activity [20]: inactive
Activity [21]: inactive
Activity [22]: inactive
Activity [23]: inactive

IC50 [1]: 0.75 µM
SMILES: CCc1ccccc1/N=C(\NCCN1CCOCC1)NC(=O)c1ccc(F)c(OC)c1
cytotoxicity at 83 µM [4]: 94%

IC50 [1]: > 10 µM
SMILES: CCc1ccccc1/N=C(\NCCCN1CCOCC1)NC(=O)c1ccccc1

IC50 [1]: > 10 µM
SMILES: COc1ccccc1/N=C(\NCCN1CCOCC1)NC(=O)c1ccccc1

IC50 [1]: 1.8 µM
SMILES: CCc1ccccc1/N=C(\NCCN1CCOCC1)NC(=O)c1ccc(F)cc1
Activity [6]: inactive
Activity [7]: inactive
Activity [8]: inactive
Activity [9]: inactive
Activity [10]: inactive
Activity [11]: inactive
Activity [12]: inactive
Activity [13]: inactive
Activity [14]: inactive
Activity [15]: inactive
Activity [16]: inactive
Activity [17]: inactive
selectivity ratio [2]: 46
IC50 [3]: > 83 µM
Activity [18]: Active
Activity [19]: inactive
Activity [20]: inactive
Activity [21]: inactive
Activity [22]: inactive
Activity [23]: inactive

IC50 [1]: > 10 µM
SMILES: CCc1ccccc1/N=C(\NCCN1CCCCC1)NC(=O)c1ccccc1

IC50 [1]: 2.4 µM
SMILES: CCc1ccccc1/N=C(\NCCN1CCOCC1)NC(=O)c1ccc(F)c(C)c1
cytotoxicity at 83 µM [4]: 101%

IC50 [1]: 7 µM
SMILES: CCc1ccccc1/N=C(\NCCN1CCOCC1)NC(=O)c1ccccc1F
selectivity ratio [2]: 1
IC50 [3]: > 10 µM

IC50 [1]: > 83 µM
SMILES: CCc1ccccc1/N=C(\NCCN1CCOCC1)NC(=O)c1cccc(C(C)=O)c1
selectivity ratio [2]: 1
IC50 [3]: > 83 µM

IC50 [1]: 4.2 µM
SMILES: O=C(N/C(=N/c1ccccc1Br)NCCN1CCOCC1)c1ccccc1
Activity [6]: Active
Activity [7]: Active
Activity [24]: Active
Activity [25]: Active
Activity [26]: Active
Activity [8]: Active
Activity [9]: Active
Activity [10]: Active
Activity [27]: Active
Activity [11]: Active
Activity [12]: Active
Activity [28]: Active
Activity [29]: Active
Activity [13]: Active
Activity [14]: Active
Activity [15]: Active
Activity [16]: Active
Activity [17]: Active
selectivity ratio [2]: > 19
Activity [30]: Active
IC50 [3]: > 83 µM
Activity [18]: inactive
Activity [19]: Active
Activity [31]: Active
Activity [21]: Active
Activity [22]: Active
Activity [23]: Active

SMILES: CCCc1ccccc1/N=C(\NCCN1CCOCC1)NC(=O)c1ccccc1
inhibition at 10 µM [5]: 72%
cytotoxicity at 83 µM [4]: 58%

IC50 [1]: > 10 µM
SMILES: O=C(N/C(=N/c1ccccc1F)NCCN1CCOCC1)c1ccccc1

IC50 [1]: 7.5 µM
SMILES: O=C(N/C(=N/c1ccccc1Cl)NCCN1CCOCC1)c1ccccc1
selectivity ratio [2]: > 11
IC50 [3]: > 83 µM

IC50 [1]: 1.3 µM
SMILES: CCc1ccccc1/N=C(\NCCN1CCOCC1)NC(=O)c1cccc(C)c1
selectivity ratio [2]: > 64
IC50 [3]: > 83 µM

IC50 [1]: > 10 µM
SMILES: O=C(N/C(=N/c1ccccc1)NCCN1CCOCC1)c1ccccc1

SMILES: O=C(N/C(=N/c1ccccc1C(F)(F)F)NCCN1CCOCC1)c1ccccc1
inhibition at 10 µM [5]: 59%
cytotoxicity at 83 µM [4]: 63%

IC50 [1]: 1.6 µM
SMILES: CCc1ccccc1/N=C(\NCCN1CCOCC1)NC(=O)c1ccc(Cl)cc1
selectivity ratio [2]: > 52
IC50 [3]: > 83 µM

IC50 [1]: 1.8 µM
SMILES: CCc1ccccc1/N=C(\NCCN1CCOCC1)NC(=O)c1ccc(F)c(F)c1
Activity [6]: Active
Activity [7]: Active
Activity [24]: Active
Activity [25]: Active
Activity [26]: Active
Activity [8]: Active
Activity [9]: Active
Activity [10]: Active
Activity [27]: Active
Activity [11]: Active
cytotoxicity at 83 µM [4]: 86%
Activity [28]: Active
Activity [29]: Active
Activity [13]: Active
Activity [14]: Active
Activity [16]: Active
Activity [30]: Active
Activity [18]: inactive
Activity [19]: Active
Activity [31]: Active
Activity [21]: Active
Activity [23]: Active
